{"source": "patent US8754057B2", "about": "“Inhibition of apoptosis-specific eIF-5A(eIF-5A1″) with antisense oligonucleotides and siRNA as anti-inflammatory therapeutics” (Senesco Technologies, Inc., priority 2003, dated 2014)", "tested_on": "lamina cribrosa cell line #506", "test": "Hoescht staining apoptosis of siRNA-transfected lamina cribrosa cells treated with TNF-α and camptothecin", "type": "cell-based, human", "conditions": "LC #506, 72 h after siRNA transfection, 24 h 10 ng/ml TNF-α plus 50 μM camptothecin", "description": "Lamina cribrosa cell line #506 cells were seeded at 7500 cells per well onto an 8-well culture slide. Three days later the LC cells were transfected with either GAPDH siRNA, apoptosis-specific eIF-5A siRNAs #1-4 (SEQ ID NO:30-33), or control siRNA #5 (SEQ ID NO:34). 72 hours after transfection, the transfected cells were treated with 10 ng/ml TNF-α plus 50 μM camptothecin. Twenty-four hours later the cells were stained with Hoescht 33258 and viewed by fluorescence microscopy using a UV filter. Cells with brightly stained condensed or fragmented nuclei were counted as apoptotic. This graph represents the average of n=4 independent experiments.\nFollowing transfection, RKO and lamina cribrosa cells were incubated for 72 hours prior to collection of cellular extract for Western blot analysis. In order to determine the effectiveness of the siRNAs directed against apoptosis-specific eIF-5A to block apoptosis, lamina cribrosa cells were treated with 50 μM of camptothecin (Sigma) and 10 ng/ml of TNF-α (Leinco Technologies) to induce apoptosis either 48 or 72 hours after transfection. The cells were stained with Hoescht either 24 or 48 hours later in order to determine the percentage of cells undergoing apoptosis.\nSmall inhibitory RNAs (siRNAs) directed against human apoptosis-specific eIF-5A were used to specifically suppress expression of eIF5A in lamina cribrosa cells. Six siRNAs were generated by in vitro transcription using the Silencer™ siRNA Construction Kit (Ambion Inc.), Four siRNAs were generated against human apoptosis-specific eIF-5A (siRNAs #1 to #4). […] The siRNAs were generated according to the manufacturer's protocol. The eIF5A and control siRNA targets had the following sequences: siRNA #1 5′ […] 3′ (SEQ ID NO: 81); siRNA #2 5′ […] 3′ (SEQ ID NO: 82); siRNA #3 5′ […] 3′ (SEQ ID NO: 83); siRNA #4 5′ […] 3′ (SEQ ID NO: 84); siRNA #5′ […] 3′ (SEQ ID NO: 85). Lamina cribrosa cells were transfected with siRNA using LipofectAMINE 2000.\nLamina cribrosa cells were transfected when cell confluence was at 40 to 70% and were generally seeded onto 8-well culture slides at 7500 cells per well three days prior to transfection. Transfection medium sufficient for one well of an 8-well culture slide was prepared by diluting 25.5 proles of siRNA to a final volume of 21.2 μl in Opti-Mem (Sigma). 0.425 μl of Lipofectamine 2000 was diluted to a final volume of 21.2 μl in Opti-Mem and incubated for 7 to 10 minutes at room temperature. The diluted Lipofectamine 2000 mixture was then added to the diluted siRNA mixture and incubated together at room temperature for 20 to 30 minutes, The cells were washed once with serum-free media before adding 135 μl of serum-free media to the cells and overlaying 42.4 μl of transfection medium. […]", "data": [{"substance": "siRNA #1: siRNA against human apoptosis-specific eIF-5A (SEQ ID NO:30); target 5′ AAAGGAATGACTTCCAGCTGA 3′ (SEQ ID NO: 81) (AAAGGAAUGACUUCCAGCUGATT; RNA, all phosphodiester, T or U not given here; listed as Homo sapiens)", "values": [{"measurement": "reduce apoptosis of LC cells", "value": 59, "unit": "%"}]}]}
